Test results reported in patent publication US20100285053A1, “Immunosuppressive Extract Of Cordyceps Sinensis And Uses Thereof” (Dalhousie University, priority 2006, published 2010).

Tests used:
Adherent macrophages = test: Effect of MAPK inhibitors on IL-6 production by stimulated macrophages; type: cell-based, murine; settings: 25 μM inhibitor 30 min pre-incubation, then ACE 3.4 mg/mL 48 hours
Method: Adherent macrophages were pre-incubated with media, vehicle (0.06% DMSO; Sigma), 25 μM ERK inhibitor, (PD98059; Calbiochem), or 25 μM p38 inhibitor (SB203580; Calbiochem) for 30 min at 37° C. before being treated with test agent. The cells were further incubated for 48 hours with ACE (3.4 mg/mL) or Zymosan (0.01%). DMSO was used as a vehicle control. IL-6 production was assayed using ELISA.

[1] = tested on: Peritoneal elicited macrophages; test: Endotoxin test: Polymyxin B pre-treatment, IL-6 production by macrophages; type: cell-based; settings: Polymyxin B 20 μg/ml 30 min, then LPS 10 ηg/ml
Method: To test for LPS contamination, macrophages were pre-treated with Polymyxin B, followed by incubation with ACE. Peritoneal elicited macrophages were pre-incubated with media or LPS inhibitor Polymyxin B (Calbiochem) at 20 μg/ml for 30 min at 37° C. Cells were further incubated with LPS (10 ηg/ml) or ACE (3.4 mg/ml). […] Results are shown as levels of IL-6 production, which were measured using ELISA. Means and standard deviations of triplicate samples are shown. Data are representative of three separate experiments.

Compound	IL-6 production by ACE treated macrophages in presence of inhibitor (Adherent macrophages)	reduction of LPS activity (IL-6 production) [1]
COc1cccc(-c2cc(=O)c3ccccc3o2)c1N [PD98059]	marked decreases of IL-6 production	–
C[S+]([O-])c1ccc(-c2nc(-c3ccncc3)c(-c3ccc(F)cc3)[nH]2)cc1 (stereo not drawn) [SB203580]	marked decreases of IL-6 production	–
Polymyxin B	–	~80%
